Measurements from US20190240187A1, “ORAL PREPARATIONS WITH OMEPRAZOLE OR PANTOPRAZOLE” (SYMRISE AG, priority 2015, published 2019).

Experiment: Bitter masking test: aqueous omeprazole solutions tasted by a panel in duo comparison tests
Type: in vivo
Conditions: 500 ppm omeprazole; for Masking effect on the bitterness of omeprazole (in words): 100 ppm additive
Excerpt: To test the bitter masking effect, aqueous solutions, each containing 500 ppm omeprazole
(V1) alone or together (1) with 100 ppm eriodyctiol (ED) or (2) with 100 ppm homoeriodyctiol sodium salt (HE) or (3) with 100 ppm eriodyctiol+100 ppm homoeriodyctiol sodium salt or (V4) with 100 ppm 4′-fluoro-6-methoxyflavanone as a reference substance that has no masking effect, were tasted. Solutions 2-5 were each tasted by an experienced panel of 20-30 testers in a randomized order against solution 1 in duo comparison tests and the bitterness of each sample was estimated on a scale of 0 to 100.

In the case of `O=C1CC(c2ccc(O)c(O)c2)Oc2cc(O)cc(O)c21` (stereo not drawn) [ED, 2-(3,4-dihydroxyphenyl)-5,7-dihydroxy-4-chronnanone], the “Masking effect on the bitterness of omeprazole (in words)” value is reported as “act on their own as masking agents”.
With `COc1ccc2[nH]c([S+]([O-])Cc3ncc(C)c(OC)c3C)nc2c1` (racemic) [Example V1, (RS)-5-methoxy-2-[(4-methoxy-3,5-dimethylpyridin-2-yl)methanesulfinyl]-1H-benzoinnidazole, reference compound] the Bitterness (mean panel estimate (20-30 testers) on a scale of 0 to 100, aqueous solution, additives 100 ppm each) was 80.
With `COc1cc(C2CC(=O)c3c(O)cc(O)cc3O2)ccc1O` (stereo not drawn) [HE, 5-7-dihydroxy-2-(4-hydroxy-3-methoxyphenyl)-4-chronnanone] the “Masking effect on the bitterness of omeprazole (in words)” value was “act on their own as masking agents”.
